According to US10172789B2, “Compositions for transdermal delivery of mTOR inhibitors” (PALVELLA THERAPEUTICS LLC, priority 2013, dated 2019):
“Also recorded” adds a separate entry of the source.

Tests used:
[1] = Rapamycin distribution in human explant skin after topical application (reverse-phase HPLC); format: in vitro ADME
Method: Rapamycin extracted from the indicated tissue slices was assayed by reverse-phase HPLC. The tissue surface was cleaned with isopropyl alcohol prior to sectioning to remove any residual surface material.
To test delivery of rapamycin from a formulation similar to that disclosed in Example 2, the formulation was applied to explant human skin.

[2] = test system: ribosomal protein S6 phosphorylation; assay: S6 phosphorylation in mouse skin after topical formulation (western blot, IHC); format: in vivo; conditions: mouse skin including ears, topical formulation with rapamycin dissolved in benzyl alcohol; western blot and IHC
Method: (§1) FIGS. 1C-F show immunochemistry […] images of frozen skin sections taken from mice treated with the same creams as FIG. 1B.
(§2) To evaluate whether benzyl alcohol has deleterious effects on rapamycin activity, rapamycin was dissolved in benzyl alcohol (and compared with other solvents as indicated) and evaluated for its ability to block phosphorylation of ribosomal protein S6, a commonly used method to assess mTOR pathway inhibition by rapamycin, in human HaCaT and patient-derived keratinocytes. […] In the assays described below, a P-S6-specific antibody recognizes only the phosphorylated form of S6 whereas the other antibody recognizes total S6 protein (i.e., both P-S6 and unphosphorylated S6). […] The inhibition of phospho-S6 was observed by both western blot analysis of protein extracts from treated mouse skin (FIG. 1B) and by immunohistochemistry (IHC) of frozen sections prepared from treated mouse skin (FIG. 1C-F).

mouse skin = assay: Gross examination of topically-treated mouse ears, flanks and footpads; format: in vivo; conditions: flanks and footpads vs untreated or placebo-treated skin, data not shown
[3] = test system: ribosomal protein S6 phosphorylation; assay: S6 phosphorylation (P-S6) western blot in human HaCaT keratinocytes; format: cell-based
Method: as §1, §2
Next-generation mTOR inhibitors have similar effects on ribosomal protein S6-phosphoylation (p-S6) when compared to rapamycin. […] The p-S6 levels were quantified and the ratio of p-S6 to total S6 (total S6 data not shown) was graphed in FIG. 2B in similar fashion to FIG. 1.

net deposition of rapamycin within the skin ([1]; 16 hours after application of rapamycin formulation): > 4 % of the applied dose
SMILES: CO[C@H]1C[C@@H]2CC[C@@H](C)[C@@](O)(O2)C(=O)C(=O)N2CCCC[C@H]2C(=O)O[C@H]([C@H](C)C[C@@H]2CC[C@@H](O)[C@H](OC)C2)CC(=O)[C@H](C)/C=C(\C)[C@@H](O)[C@@H](OC)C(=O)[C@H](C)C[C@H](C)/C=C/C=C/C=C/1C [rapamycin]
rapamycin concentrations within the epidermis (and dermis) ([1]; 16 hours after topical application, formulation similar to Example 2, compared with level needed to inhibit S6 phosphorylation in cell culture): many fold higher than required for in vitro activity; also recorded: well above the IC50 value | S6 phosphorylation relative to total S6 protein [2]: inhibited | skin irritation on gross examination (mouse skin): little or no irritation | effect on total S6 protein levels ([3]; rapamycin dissolved in benzyl alcohol or other solvents): little or no effect | inhibition of ribosomal protein S6 phosphorylation (P-S6) ([3]; rapamycin dissolved in benzyl alcohol, DMSO, ethanol or diglycol, FIG. 1A): efficiently inhibits
